This assay has as its target T1, human PAR4 (Homo sapiens, UniProt Q96RI0).
T1 construct: expressed in transfected cells; host or cells: HEK293 PAR4 Clone 1.2A (BMS Arctic ID 383940)
T1 sequence (Q96RI0 18-385): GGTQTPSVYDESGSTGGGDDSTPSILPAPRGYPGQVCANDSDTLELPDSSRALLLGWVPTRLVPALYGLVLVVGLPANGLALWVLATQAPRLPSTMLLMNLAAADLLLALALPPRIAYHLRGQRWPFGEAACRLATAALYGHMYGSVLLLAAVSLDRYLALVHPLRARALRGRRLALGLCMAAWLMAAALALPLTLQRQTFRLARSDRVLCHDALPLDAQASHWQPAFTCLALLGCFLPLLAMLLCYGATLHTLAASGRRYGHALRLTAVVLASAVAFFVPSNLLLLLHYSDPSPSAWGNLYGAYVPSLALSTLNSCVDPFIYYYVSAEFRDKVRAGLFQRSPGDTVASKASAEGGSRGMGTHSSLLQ
The experiment in a line: PAR4 FLIPR assay: antagonism of agonist-peptide-induced calcium mobilization in PAR4-expressing HEK293 cells. The conditions noted are these: H-Ala-Phe(4-F)-[…]NH2-induced intracellular calcium mobilization, 11-point curves. Format: cell-based.

Where a name gives a salt, the structure may show the parent alone.

On to `C[C@H](Oc1cc2sc(-c3cc(Cl)cc4cc(OC(F)F)cnc34)nc2cc1F)[C@@H](C)OC(=O)Nc1cnc(OCCO)nc1` [Example 515, (2R,3S)-3-((2-(6-chloro-3-(difluoromethoxy)quinolin-8-yl)-5-fluorobenzo[d]thiazol-6-yl)oxy)butan-2-yl (2-(2-hydroxyethoxy)pyrimidin-5-yl)carbamate], for which the half-inhibitory concentration (IC50) was 2.6 nM.

For `COCc1cnc2c(-c3nc4c(C)cc(OCCNS(=O)(=O)c5ccc(F)cc5)cc4s3)cc(Cl)cc2n1` [Example 200, N-(2-((2-(7-chloro-2-(methoxymethyl)quinoxalin-5-yl)-4-methylbenzo[d]thiazol-6-yl)oxy)ethyl)-4-fluorobenzenesulfonamide], the IC50 worked out at 1.6 nM.

In the case of `COc1cc(C(O)C2(c3ccccc3)CC2)c2nc(-c3cc(C)cc4nc(OC)cnc34)sc2c1` (stereo not drawn) [Example 668, (6-methoxy-2-(2-methoxy-7-methylquinoxalin-5-yl)benzo[d]thiazol-4-yl)(1-phenylcyclopropyl)methanol], the IC50 was 7.3 nM.

As to `COc1cnc2c(-c3nc4c(Cl)c(F)c(OCCOC(=O)Nc5ccnc(C)c5)cc4s3)cc(C)cc2n1` [Example 336, 2((4-chloro-5-fluoro-2-(2-methoxy-7-methylquinoxalin-5-yl)benzo[d]thiazol-6-yl)oxy)ethyl (2-methylpyridin-4-yl)carbamate], the IC50 was determined as 5.5 nM.

`Cc1cc(-c2nc3cc(F)c(O[C@@H](C)[C@@H](C)OC(=O)Nc4cnc(C)nc4)cc3s2)c2ncc(OC(F)F)nc2c1` [Example 490, (2R,3S)-3-((2-(2-(difluoromethoxy)-7-methylquinoxalin-5-yl)-5-fluorobenzo[d]thiazol-6-yl)oxy)butan-2-yl (2-methylpyrimidin-5-yl)carbamate]: the IC50 is 5.1 nM.

Turning to `COc1cnc2c(-c3nc4c(Cl)c(C)c(OC)cc4s3)cc(C)cc2n1` [Example 299, 4-chloro-6-methoxy-2-(2-methoxy-7-methylquinoxalin-5-yl)-5-methylbenzo[d] thiazole], the IC50 came out at 10 nM.

Take `COc1cnc2c(-c3nc4c(C)cc(OCCNS(=O)(=O)c5ccc(F)cc5)cc4s3)cc(C(C)O)cc2n1` (stereo not drawn) [Example 239, 4-fluoro-N-(2-((2-(7-(1-hydroxyethyl)-2-methoxyquinoxalin-5-yl)-4-methylbenzo[d]thiazol-6-yl)oxy)ethyl)benzenesulfonamide]: the IC50 amounted to 7.9 nM.

As for `COc1cnc2c(-c3nc4c(Cl)c(F)c(OC[C@@H](C)OC(=O)Nc5ccnc(C(N)=O)c5)cc4s3)cc(C)cc2n1` [Example 427, (R)-1-((4-chloro-5-fluoro-2-(2-methoxy-7-methylquinoxalin-5-yl)benzo[d]thiazol-6-yl)oxy)propan-2-yl (2-carbamoylpyridin-4-yl)carbamate], the IC50 was found to be 7.6 nM.

As for `COc1cnc2c(-c3nc4cc(F)c(O[C@@H](C)[C@@H](C)OC(=O)Nc5ccc(NC(C)=O)nc5)cc4s3)cc(C)cc2n1` [Example 601, (2R,3S)-3-((5-fluoro-2-(2-methoxy-7-methylquinoxalin-5-yl)benzo[d]thiazol-6-yl)oxy)butan-2-yl (6-acetamidopyridin-3-yl)carbamate], the IC50 turned out to be 3.5 nM.

With `COc1cnc2c(-c3nc4c(Cl)c(F)c(OCCOC(=O)Nc5cncs5)cc4s3)cc(C)cc2n1` [Example 384, 2-((4-chloro-5-fluoro-2-(2-methoxy-7-methylquinoxalin-5-yl)benzo[d]thiazol-6-yl)oxy)ethyl thiazol-5-ylcarbamate], the IC50 turned out to be 18 nM.

`COc1cc(C(O)C2(C(F)(F)F)CCC2)c2nc(-c3cc(C)cc4nc(OC)cnc34)sc2c1` (stereo not drawn) [Example 669]: the concentration for half-maximal inhibition (IC50) was 2.3 nM.

For the compound `COc1cnc2c(-c3nc4cc(F)c(O[C@@H](C)[C@@H](C)OC(=O)Nc5cccnc5)cc4s3)cc(Cl)cc2c1` [Example 788, (2R,3S)-3-((2-(6-chloro-3-methoxyquinolin-8-yl)-5-fluorobenzo[d]thiazol-6-yl)oxy)butan-2-yl pyridin-3-ylcarbamate], the IC50 worked out at 3.1 nM.

Consider `CCOc1cnc2c(-c3nc4cc(F)c(O[C@@H](C)[C@@H](C)OC(=O)Nc5ccc(C(=O)NC[C@H](C)O)nc5)cc4s3)cc(C)cc2n1` [Example 531, (2R,3S)-3-((2-(2-ethoxy-7-methylquinoxalin-5-yl)-5-fluorobenzo[d]thiazol-6-yl)oxy)butan-2-yl (6-(((S)-2-hydroxypropyl)carbamoyl)pyridin-3-yl)carbamate, TFA], for which the IC50 worked out at 0.7 nM.

With `COc1cnc2c(-c3nc4c(C)cc(OCC(=O)NCc5ccccc5)cc4s3)cc(C)cc2n1` [Example 36, N-benzyl-2-((2-(2-methoxy-7-methylquinoxalin-5-yl)-4-methylbenzo[d]thiazol-6-yl)oxy)acetamide], the IC50 amounted to 7.7 nM.

Regarding `COc1cnc2c(-c3nc4cc(F)c(O[C@@H](C)[C@@H](C)OC(=O)Nc5ccc(N)nc5)cc4s3)cc(C)cc2n1` [Example 602, (2R,3S)-3-((5-fluoro-2-(2-methoxy-7-methylquinoxalin-5-yl)benzo[d]thiazol-6-yl)oxy)butan-2-yl (6-aminopyridin-3-yl)carbamate], the IC50 was found to be 6.4 nM.

Turning to `COc1cnc2c(-c3nc4cc(F)c(OC[C@@H](C)OC(=O)Nc5ccc(C(=O)N(C)CC(C)(C)O)nc5)cc4s3)cc(C)cc2n1` [Example 474, (R)-1-((5-fluoro-2-(2-methoxy-7-methylquinoxalin-5-yl)benzo[d]thiazol-6-yl)oxy)propan-2-yl (6-((2-hydroxy-2-methylpropyl)(methyl)carbamoyl)pyridin-3-yl)carbamate], the IC50 amounted to 11 nM.

On to `COc1cnc2c(-c3nc4c(C)cc(OCCOC(=O)Nc5ccc(C#N)nc5)nc4s3)cc(C)cc2n1` [Example 197, 2-((2-(2-methoxy-7-methylquinoxalin-5-yl)-7-methylthiazolo[5,4-b]pyridin-5-yl)oxy)ethyl (6-cyanopyridin-3-yl)carbamate], for which the IC50 turned out to be 1.3 nM.

As to `COc1cnc2c(-c3nc4cc(F)c(OC[C@@H](C)OC(=O)Nc5ccc(OCC(F)(F)CO)nc5)cc4s3)cc(C)cc2n1` [Example 574, (R)-1-((5-fluoro-2-(2-methoxy-7-methylquinoxalin-5-yl)benzo[d]thiazol-6-yl)oxy)propan-2-yl (6-(2,2-difluoro-3-hydroxypropoxy)pyridin-3-yl)carbamate], the IC50 was determined as 2 nM.

As to `COCc1cnc2c(-c3nc4c(C)cc(OC)cc4s3)cc(C)cc2c1` [Example 185, 6-methoxy-2-(3-(methoxymethyl)-6-methylquinolin-8-yl)-4-methylbenzo[d]thiazole], the IC50 amounted to 6.5 nM.

For `COc1cnc2c(-c3nc4cc(F)c(OC[C@@H](C)OC(=O)Nc5cnc6[nH]ccc6c5)cc4s3)cc(C)cc2n1` [Example 354, (R)-1-((5-fluoro-2-(2-methoxy-7-methylquinoxalin-5-yl)benzo[d]thiazol-6-yl)oxy)propan-2-yl 1H-pyrrolo[2,3-b]pyridin-5-ylcarbamate], the IC50 was 1.2 nM.

For `COc1cnc2c(-c3nc4cc(F)c(O[C@@H](C)[C@@H](C)OC(=O)Nc5ccc(N6CCOC6=O)nc5)cc4s3)cc(C)cc2n1` [Example 600, (2R,3S)-3-((5-fluoro-2-(2-methoxy-7-methylquinoxalin-5-yl)benzo[d]thiazol-6-yl)oxy)butan-2-yl (6-(2-oxooxazolidin-3-yl)pyridin-3-yl)carbamate], the IC50 came out at 2.4 nM.

For the compound `COc1cnc2c(-c3nc4cc(F)c(O[C@@H](C)[C@@H](C)OC(=O)Nc5cnc(OC)c(C)c5)cc4s3)cc(C)cc2n1` [Example 422, (2R,3S)-3-((5-fluoro-2-(2-methoxy-7-methylquinoxalin-5-yl)benzo[d]thiazol-6-yl)oxy)butan-2-yl (6-methoxy-5-methylpyridin-3-yl)carbamate], the IC50 was 2.2 nM.

Consider `Cc1cc(-c2nc3c(C)cc(OCCNS(=O)(=O)c4ccc(F)cc4F)cc3s2)c2ncc(OC(F)F)nc2c1` [Example 84, N-(2-(2-(2-(difluoromethoxy)-7-methylquinoxalin-5-yl)-4-methylbenzo[d]thiazol-6-yloxy)ethyl)-2,4-difluorobenzenesulfonamide], for which the IC50 worked out at 2.5 nM.

On to `COCc1cnc2c(-c3nc4c(F)c(F)c(OC)cc4s3)cc(C)cc2n1` [Example 267, 4,5-difluoro-6-methoxy-2-(2-(methoxymethyl)-7-methylquinoxalin-5-yl)benzo[d]thiazole], for which the half-maximal inhibitory concentration (IC50) was 0.8 nM.

Regarding `COc1cnc2c(-c3nc4cc(F)c(OC[C@@H](C)OC(=O)Nc5cnc(C)nc5)nc4s3)cc(Cl)cc2c1` [Example 770, (R)-1-((2-(6-chloro-3-methoxyquinolin-8-yl)-6-fluorothiazolo[5,4-b]pyridin-5-yl)oxy)propan-2-yl (2-methylpyrimidin-5-yl)carbamate], the IC50 stood at 1.9 nM.

On to `COc1cnc2c(-c3nc4cc(F)c(O[C@@H](C)[C@@H](C)OC(=O)Nc5cnc(C)nc5)cc4s3)cc(C(F)F)cc2c1` [Example 653, (2R,3S)-3-((2-(6-(difluoromethyl)-3-methoxyquinolin-8-yl)-5-fluorobenzo[d]thiazol-6-yl)oxy)butan-2-yl (2-methylpyrimidin-5-yl)carbamate], for which the IC50 stood at 0.83 nM.

As to `COc1cnc2c(-c3nc4c(Cl)c(F)c(OC[C@@H](C)OC(=O)Nc5nnc(C)s5)cc4s3)cc(C)cc2n1` [Example 370, (R)-1-((4-chloro-5-fluoro-2-(2-methoxy-7-methylquinoxalin-5-yl)benzo[d]thiazol-6-yl)oxy)propan-2-yl (5-methyl-1,3,4-thiadiazol-2-yl)carbamate], the half-maximal inhibitory concentration (IC50) was determined as 5.8 nM.

The values are drawn from patent publication US12060347B2 (BRISTOL-MYERS SQUIBB COMPANY, priority 2016, dated 2024).
